For assay [1], the target named is TYK2 (Homo sapiens (Human), UniProt P29597). In words: Tyk2 radioactive kinase assay. In kind it is biochemical. To be noted: ATP 10 μM. The procedure:
(§1) Peptide substrate, [KKSRGDYMTMQIG], (20 μM) is prepared in reaction buffer (20 mM Hepes pH 7.5, 10 mM MgCl2, 1 mM EGTA, 0.02% Brij35, 0.02 mg/mL BSA, 0.1 mM […], 2 mM DTT, 1% DMSO. TYK2 (Invitrogen) kinase is added, followed by compounds in DMSO. ^33PATP is added to initiate the reaction with ATP at 10 μM. Kinase reaction is incubated for 120 min at room temp and reactions are spotted onto P81 ion exchange paper (Whatman #3698-915), and then washed extensively in 0.75% phosphoric acid, prior to reading the radioactivity counts. For JAK2 (Invitrogen) kinase assay the peptide substrate poly[Glu:Tyr] (4:1), 0.2 mg/ml is used, in the reaction carried out the same as for TYK2.

In assay [2] the target is JAK2 (Homo sapiens (Human), UniProt O60674). In words: JAK2 radioactive kinase assay. It counts as biochemical. To be noted: ATP 10 μM. The procedure: as §1
Assay [3] has as its system Tyk2-pSTAT4 (IL-12 induced pSTAT4). In words: IL-12 induced pSTAT4 in human PBMC. To be noted: Homo sapiens, PBMC, 0.5 h, 1.7 ng/mL IL-12, 30 minutes. It counts as cell-based. The procedure:
Human PBMC are isolated from buffy coat and are stored frozen for assays as needed. Cells for assay are thawed and resuspended in complete media containing serum, then cells are diluted to 1.67 E6 cells/ml so that 120 ul per well is 200,000 cells. 15 ul of compound or DMSO is added to the well at the desired concentrations and incubated at 1 hr at 37 C. 15 ul of stimulus (final concentration of 1.7 ng/mL IL-12) is added for 30 minutes prior to pSTAT4 and total STAT4 analysis using cell lysates prepared and analyzed by MSD reagents as per manufacturer protocol. The final DMSO concentration of compound in the assay is 0.1%.

Structures are written as SMILES. pEC50, pKi: −log10 of the molar value.

Sequence of JAK2 (O60674 whole entry): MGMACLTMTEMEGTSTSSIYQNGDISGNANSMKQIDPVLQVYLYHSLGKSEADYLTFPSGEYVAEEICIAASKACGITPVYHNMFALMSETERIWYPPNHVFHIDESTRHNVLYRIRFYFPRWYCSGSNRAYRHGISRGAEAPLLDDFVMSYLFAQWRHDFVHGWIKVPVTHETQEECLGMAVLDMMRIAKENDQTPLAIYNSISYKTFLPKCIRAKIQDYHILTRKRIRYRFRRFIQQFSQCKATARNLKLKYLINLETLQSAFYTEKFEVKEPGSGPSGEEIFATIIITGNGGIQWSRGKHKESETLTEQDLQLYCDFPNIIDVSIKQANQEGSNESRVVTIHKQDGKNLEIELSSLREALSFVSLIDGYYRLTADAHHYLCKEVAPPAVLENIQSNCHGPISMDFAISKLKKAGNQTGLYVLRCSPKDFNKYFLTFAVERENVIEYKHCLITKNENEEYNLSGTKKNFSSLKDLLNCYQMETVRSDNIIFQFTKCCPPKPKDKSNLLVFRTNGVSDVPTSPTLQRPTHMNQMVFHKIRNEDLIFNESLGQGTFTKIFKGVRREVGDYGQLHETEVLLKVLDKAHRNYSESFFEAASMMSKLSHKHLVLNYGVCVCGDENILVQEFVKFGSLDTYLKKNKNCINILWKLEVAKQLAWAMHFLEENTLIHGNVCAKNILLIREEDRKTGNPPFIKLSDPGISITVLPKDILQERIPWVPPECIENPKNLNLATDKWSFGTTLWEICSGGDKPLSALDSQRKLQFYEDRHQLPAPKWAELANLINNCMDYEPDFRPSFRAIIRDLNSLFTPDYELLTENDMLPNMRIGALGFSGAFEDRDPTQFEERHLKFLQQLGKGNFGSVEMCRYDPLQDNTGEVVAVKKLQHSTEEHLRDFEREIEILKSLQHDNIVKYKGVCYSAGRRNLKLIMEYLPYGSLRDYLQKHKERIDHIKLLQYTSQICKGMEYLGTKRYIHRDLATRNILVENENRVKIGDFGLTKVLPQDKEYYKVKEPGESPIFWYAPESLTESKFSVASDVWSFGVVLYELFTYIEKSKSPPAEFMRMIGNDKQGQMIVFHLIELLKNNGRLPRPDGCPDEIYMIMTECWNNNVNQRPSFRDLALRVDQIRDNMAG
Sequence of TYK2 (P29597 whole entry): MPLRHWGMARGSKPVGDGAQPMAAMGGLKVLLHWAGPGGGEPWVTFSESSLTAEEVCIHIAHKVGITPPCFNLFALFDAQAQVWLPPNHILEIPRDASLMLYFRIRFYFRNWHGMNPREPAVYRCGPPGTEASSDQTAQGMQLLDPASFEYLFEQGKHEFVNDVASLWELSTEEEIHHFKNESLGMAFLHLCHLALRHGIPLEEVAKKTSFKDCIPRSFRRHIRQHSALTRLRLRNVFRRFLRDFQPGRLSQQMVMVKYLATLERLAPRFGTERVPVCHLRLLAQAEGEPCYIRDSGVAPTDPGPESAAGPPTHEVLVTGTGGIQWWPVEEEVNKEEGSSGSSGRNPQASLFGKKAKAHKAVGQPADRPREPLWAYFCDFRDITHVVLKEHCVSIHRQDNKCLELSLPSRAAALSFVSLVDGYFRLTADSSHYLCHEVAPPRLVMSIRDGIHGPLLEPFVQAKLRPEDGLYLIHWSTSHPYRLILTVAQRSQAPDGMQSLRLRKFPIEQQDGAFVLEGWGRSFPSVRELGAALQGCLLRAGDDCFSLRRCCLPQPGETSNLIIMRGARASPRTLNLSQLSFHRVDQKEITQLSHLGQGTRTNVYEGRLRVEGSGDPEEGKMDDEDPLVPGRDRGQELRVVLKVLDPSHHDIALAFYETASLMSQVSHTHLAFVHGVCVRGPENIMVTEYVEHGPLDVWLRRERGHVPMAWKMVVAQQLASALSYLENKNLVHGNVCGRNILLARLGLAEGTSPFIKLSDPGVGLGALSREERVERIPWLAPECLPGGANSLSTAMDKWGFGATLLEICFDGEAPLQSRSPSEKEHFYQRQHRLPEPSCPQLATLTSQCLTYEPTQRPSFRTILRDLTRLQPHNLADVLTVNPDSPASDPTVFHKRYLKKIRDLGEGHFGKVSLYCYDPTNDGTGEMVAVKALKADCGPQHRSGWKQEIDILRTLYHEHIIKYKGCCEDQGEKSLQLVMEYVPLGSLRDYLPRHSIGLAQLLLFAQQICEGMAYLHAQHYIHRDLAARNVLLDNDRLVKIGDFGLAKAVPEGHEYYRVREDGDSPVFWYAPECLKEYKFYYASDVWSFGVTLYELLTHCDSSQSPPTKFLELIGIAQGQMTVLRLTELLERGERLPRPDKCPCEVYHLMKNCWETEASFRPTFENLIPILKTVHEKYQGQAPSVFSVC

`N#Cc1cccc(F)c1-c1cc(-n2ccc(N3CCOC[C@H](O)C3)n2)c2c(n1)CNC2=O` [I-132, (R)-3-fluoro-2-(4-(3-(6-hydroxy-1,4-oxazepan-4-yl)-1H-pyrazol-1-yl)-5-oxo-6,7-dihydro-5H-pyrrolo[3,4-b]pyridin-2-yl)benzonitrile]: the pKi (in general, −log10 of the Ki, conventionally taken in molar units) in assay [1] was 8.00 to 10.00; in assay [2] it was 7.00 to 8.00. Moreover, the pEC50 (usually the negative decadic logarithm of the EC50, by convention in mol/L) in assay [3] is 5.70 to 7.00.
The matching figures for `N#Cc1cccc(F)c1-c1cc(-n2ccc(N3CCNC(=O)C3)n2)c2c(n1)CNC2=O` [I-175, 3-fluoro-2-(5-oxo-4-(3-(3-oxopiperazin-1-yl)-1H-pyrazol-1-yl)-6,7-dihydro-5H-pyrrolo[3,4-b]pyridin-2-yl)benzonitrile]: 8.00 to 10.00, 6.00 to 7.00 and 5.70 to 7.00.
The matching figures for `N#Cc1cccc(F)c1-c1cc(-n2ccc(N3CC[C@@H](O)[C@@H](O)C3)n2)c2c(n1)CNC2=O` [I-105, 2-(4-(3-((3S,4R)-3,4-dihydroxypiperidin-1-yl)-1H-pyrazol-1-yl)-5-oxo-6,7-dihydro-5H-pyrrolo[3,4-b]pyridin-2-yl)-3-fluorobenzonitrile]: 8.00 to 10.00, 7.00 to 8.00 and 5.70 to 7.00.
On to `N#Cc1cccc(F)c1-c1cc(-n2ccc(N3CCCNC(=O)C3)n2)c2c(n1)CNC2=O` [I-140, 3-fluoro-2-(5-oxo-4-(3-(3-oxo-1,4-diazepan-1-yl)-1H-pyrazol-1-yl)-6,7-dihydro-5H-pyrrolo[3,4-b]pyridin-2-yl)benzonitrile], for which the pKi in assay [1] and in assay [2] was 8.00 to 10.00 throughout. The pEC50 in assay [3] is 5.70 to 7.00.
For `N#Cc1cccc(F)c1-c1cc(-n2ccc(N3CC[C@@H](C#N)C3)n2)c2c(n1)CNC2=O` [I-127, (R)-1-(1-(2-(2-cyano-6-fluorophenyl)-5-oxo-6,7-dihydro-5H-pyrrolo[3,4-b]pyridin-4-yl)-1H-pyrazol-3-yl)pyrrolidine-3-carbonitrile], the pKi was 8.00 to 10.00 in assay [1] and 7.00 to 8.00 in assay [2]. Moreover, in assay [3], the pEC50 was 7.00 to 7.52.
The corresponding values for `[2H]C1([2H])N(c2ccn(-c3cc(-c4c(F)cccc4C#N)nc4c3C(=O)NC4)n2)C([2H])([2H])C([2H])(O)C1([2H])[2H]` (stereo not shown) [I-194, 3-fluoro-2-(4-(3-(3-hydroxypyrrolidin-1-yl-2,2,3,4,4,5,5-d7)-1H-pyrazol-1-yl)-5-oxo-6,7-dihydro-5H-pyrrolo[3,4-b]pyridin-2-yl)benzonitrile] are 8.00 to 10.00, 8.00 to 10.00 and 5.70 to 7.00.
As to `CO[C@@H]1CN(c2ccn(-c3cc(-c4c(F)cccc4C#N)nc4c3C(=O)NC4)n2)C[C@@H]1O` [I-154, 3-fluoro-2-(4-(3-((3S,4R)-3-hydroxy-4-methoxypyrrolidin-1-yl)-1H-pyrazol-1-yl)-5-oxo-6,7-dihydro-5H-pyrrolo[3,4-b]pyridin-2-yl)benzonitrile], the pKi in assay [1] is 8.00 to 10.00. Also, the pEC50 in assay [3] was 7.00 to 7.52.
Turning to `C[C@]1(O)CCN(c2ccn(-c3cc(-c4c(F)cccc4C#N)nc4c3C(=O)NC4)n2)C1` [I-93, (S)-3-fluoro-2-(4-(3-(3-hydroxy-3-methylpyrrolidin-1-yl)-1H-pyrazol-1-yl)-5-oxo-6,7-dihydro-5H-pyrrolo[3,4-b]pyridin-2-yl)benzonitrile], the figures for the pKi in assay [1] and in assay [2] were 8.00 to 10.00 and 7.00 to 8.00, respectively. The molecule also showed a pEC50 in assay [3] of 7.00 to 7.52.
The matching figures for `C[C@@]1(O)CN(c2ccn(-c3cc(-c4c(F)cccc4C#N)nc4c3C(=O)NC4)n2)CC[C@H]1O` [I-182, 2-(4-(3-((3R,4R)-3,4-dihydroxy-3-methylpiperidin-1-yl)-1H-pyrazol-1-yl)-5-oxo-6,7-dihydro-5H-pyrrolo[3,4-b]pyridin-2-yl)-3-fluorobenzonitrile]: 8.00 to 10.00, 8.00 to 10.00 and 7.00 to 7.52.
The matching figures for `N#Cc1cccc(F)c1-c1cc(-n2ccc(N3C[C@@H]4OCCO[C@@H]4C3)n2)c2c(n1)CNC2=O` [I-169, 3-fluoro-2-(4-(3-((4aR,7aS)-hexahydro-6H-[1,4]dioxino[2,3-c]pyrrol-6-yl)-1H-pyrazol-1-yl)-5-oxo-6,7-dihydro-5H-pyrrolo[3,4-b]pyridin-2-yl)benzonitrile]: 8.00 to 10.00, 8.00 to 10.00 and 7.00 to 7.52.
The corresponding values for `N#Cc1cccc(F)c1-c1cc(-n2ccc(N3CC[C@@](O)(C(=O)N4CCCC4)C3)n2)c2c(n1)CNC2=O` [I-197, (S)-3-fluoro-2-(4-(3-(3-hydroxy-3-(pyrrolidine-1-carbonyl)-pyrrolidin-1-yl)-1H-pyrazol-1-yl)-5-oxo-6,7-dihydro-5H-pyrrolo[3,4-b]pyridin-2-yl)benzonitrile] are 8.00 to 10.00, 7.00 to 8.00 and 5.70 to 7.00.
In the case of `N#Cc1cccc(F)c1-c1cc(-n2ccc(N3CCC[C@@H](C(=O)N4CCCC4)C3)n2)c2c(n1)CNC2=O` [I-167, (R)-3-fluoro-2-(5-oxo-4-(3-(3-(pyrrolidine-1-carbonyl)piperidin-1-yl)-1H-pyrazol-1-yl)-6,7-dihydro-5H-pyrrolo[3,4-b]pyridin-2-yl)benzonitrile], the pKi in assay [1] and in assay [2] was 8.00 to 10.00 in each case. For the same molecule, the pEC50 in assay [3] was 5.70 to 7.00.
On to `N#Cc1cccc(F)c1-c1cc(-n2ccc(N3CC[C@]4(C3)OC[C@@H](O)CO4)n2)c2c(n1)CNC2=O` [I-222, 3-fluoro-2-(4-(3-((5s,8s)-8-hydroxy-6,10-dioxa-2-azaspiro[4.5]decan-2-yl)-1H-pyrazol-1-yl)-5-oxo-6,7-dihydro-5H-pyrrolo[3,4-b]pyridin-2-yl)benzonitrile], for which the pKi in assay [1] is 8.00 to 10.00; in assay [2], 7.00 to 8.00. This molecule had a pEC50 in assay [3] of 5.70 to 7.00.
Regarding `N#Cc1cccc(F)c1-c1cc(-n2ccc(N3CCC(F)C(O)C3)n2)c2c(n1)CNC2=O` (stereo not shown) [I-160, 3-fluoro-2-(4-(3-(4-fluoro-3-hydroxypiperidin-1-yl)-1H-pyrazol-1-yl)-5-oxo-6,7-dihydro-5H-pyrrolo[3,4-b]pyridin-2-yl)benzonitrile], the pKi is 10.00 to 11.05 in assay [1] and 8.00 to 10.00 in assay [2]. In assay [3], the pEC50 is 7.00 to 7.52.
As for `N#Cc1cccc(F)c1-c1cc(-n2ccc(N3CCC(C#N)C3)n2)c2c(n1)CNC2=O` (stereo not shown) [I-116, 1-(1-(2-(2-cyano-6-fluorophenyl)-5-oxo-6,7-dihydro-5H-pyrrolo[3,4-b]pyridin-4-yl)-1H-pyrazol-3-yl)pyrrolidine-3-carbonitrile], the pKi in assay [1] and in assay [2] was 8.00 to 10.00 each time.
On to `C[C@]1(O)CN(c2ccn(-c3cc(-c4c(F)cccc4C#N)nc4c3C(=O)NC4)n2)C[C@@](C)(O)C1` [I-144, 2-(4-(3-((3S,5R)-3,5-dihydroxy-3,5-dimethylpiperidin-1-yl)-1H-pyrazol-1-yl)-5-oxo-6,7-dihydro-5H-pyrrolo[3,4-b]pyridin-2-yl)-3-fluorobenzonitrile], for which the results for the pKi in assay [1] and in assay [2] were 7.00 to 8.00 and 6.00 to 7.00, respectively.
Regarding `CC1(C)C(O)CCN1c1ccn(-c2cc(-c3c(F)cccc3C#N)nc3c2C(=O)NC3)n1` (stereo not shown) [I-187, 3-fluoro-2-(4-(3-(3-hydroxy-2,2-dimethylpyrrolidin-1-yl)-1H-pyrazol-1-yl)-5-oxo-6,7-dihydro-5H-pyrrolo[3,4-b]pyridin-2-yl)benzonitrile], the pKi in assay [1] is 10.00 to 11.05; in assay [2] it was 8.00 to 10.00. Further, the pEC50 in assay [3] was 5.70 to 7.00.
The matching figures for `N#Cc1cccc(F)c1-c1cc(-n2cc3c(n2)CCCN3)c2c(n1)CNC2=O` [I-77, 3-fluoro-2-(5-oxo-4-(4,5,6,7-tetrahydro-2H-pyrazolo[4,3-b]pyri-din-2-yl)-6,7-dihydro-5H-pyrrolo[3,4-b]pyridin-2-yl)benzonitrile]: 8.00 to 10.00, 7.00 to 8.00 and 7.00 to 7.52.
The matching figures for `N#Cc1cccc(F)c1-c1cc(-n2ccc(N3CCCC(CO)C3)n2)c2c(n1)CNC2=O` (stereo not shown) [I-86, 3-fluoro-2-(4-(3-(3-(hydroxymethyl)piperidin-1-yl)-1H-pyrazol-1-yl)-5-oxo-6,7-dihydro-5H-pyrrolo[3,4-b]pyridin-2-yl)benzonitrile]: 8.00 to 10.00, 7.00 to 8.00 and 5.70 to 7.00.
In the case of `CN1CCN(c2ccn(-c3cc(-c4c(F)cccc4F)nc4c3C(=O)NC4)n2)CC1` [I-5, 2-(2,6-difluorophenyl)-4-(3-(4-methylpiperazin-1-yl)-1H-pyrazol-1-yl)-6,7-dihydro-5H-pyrrolo[3,4-b]pyridin-5-one], the pKi in assay [1] is 8.00 to 10.00; in assay [2], 6.00 to 7.00.
The corresponding values for `N#Cc1cccc(F)c1-c1cc(-n2ccc(N3CCC4(CCNC4=O)C3)n2)c2c(n1)CNC2=O` (stereo not shown) [I-146, 3-fluoro-2-(5-oxo-4-(3-(6-oxo-2,7-diazaspiro[4.4]nonan-2-yl)-1H-pyrazol-1-yl)-6,7-dihydro-5H-pyrrolo[3,4-b]pyridin-2-yl)benzonitrile] are 8.00 to 10.00 and 7.00 to 8.00.

The values are drawn from patent publication US10781204B2, “TYK2 inhibitors and uses thereof” (Nimbus Lakshmi, Inc., priority 2015, dated 2020).
